# Results taken from patent US20100004704A1, “METHOD FOR TREATING A CARDIAC RHYTHM DISTURBANCE” (The Cleveland Clinic Foundation, priority 2008, published 2010).
# Test system: open-chest canines
# Assay: Dobutamine infusion followed by vagal (sinus node fat pad) stimulation, hemodynamics in open-chest canines
# Assay type: in vivo
# Description: A study was done to assess the effects of dobutamine administration followed by vagal stimulation on sinus tachycardia. The study was done using 4 open-chest canines. Dobutamine was infused at a rate of 2.5-7.5 μg/kg/min to increase the cardiac contractility and the sinus rate at least 30 beats per minute. Vagal nerve stimulation was applied at the epicardial sinus node fat pad, located at the junction of the right pulmonary vein and the right atrium. Vagal stimulation was done with an electrical lead comprising a silicone plate with four platinum electrodes imbedded therein. Rectangular current pulses were delivered with intensity in the range of 1 to 5 mA, duration of pulse in the range of 0.1 ms to 1 ms, and frequency of repetition of the pulses between 20-30 Hz. To avoid tissue polarization, the polarity of consecutive pulses was alternated. Vagal nerve stimulation was administered to slow the sinus rate to the control level. Hemodynamic data was collected and compared in canines during control, during administration of dobutamine, and during both dobutamine and vagal stimulation.
# [1] = dobutamine + vagal stimulation at sinus node fat pad
# [2] = dobutamine infused 2.5-7.5 μg/kg/min, no vagal stimulation
smiles,measurement,setting,value
"CC(CCc1ccc(O)cc1)NCCc1ccc(O)c(O)c1 (stereo not drawn) [Dobutamine, dobutamine]",RR interval,"dobutamine 2.5-7.5 μg/kg/min + vagal stimulation at sinus node fat pad (1-5 mA, 0.1-1 ms, 20-30 Hz)",560 ± 16 ms
same,+dp/dt,[1],2980 ± 602 mmHg/s
same,CO,[1],3.6 ± 0.8 L/min
same,DBP,[1],74 ± 7 mmHg
same,LVEDP,[1],7.6 ± 1.5 mmHg
same,LVSP,[1],120 ± 16 mmHg
same,SBP,[1],126 ± 12 mmHg
same,−dp/dt,[1],−1897 ± −313 mmHg/s
same,"heart rate, systolic blood pressure (SBP), diastolic blood pressure (DBP), left ventricular systolic pressure (LVSP) (and its ±dp/dt), and cardiac output (CO)","dobutamine administration vs. control, open-chest canines",significantly increased
same,RR interval,"dobutamine infused 2.5-7.5 μg/kg/min, 4 open-chest canines, no vagal stimulation",421 ± 36 ms
same,+dp/dt,[2],3607 ± 861 mmHg/s
same,CO,[2],4.2 ± 0.9 L/min
same,DBP,[2],84 ± 7 mmHg
same,LVEDP,[2],6.9 ± 2.2 mmHg
same,LVSP,[2],130 ± 13 mmHg
same,SBP,[2],135 ± 18 mmHg
same,−dp/dt,[2],−2259 ± −495 mmHg/s
same,sinus rate increase,"vagal stimulation combined with dobutamine, all other hemodynamic benefits preserved",eliminated sinus rate increase
